According to patent publication US12723063B2, “GIPR-agonist compounds” (Eli Lilly and Company, priority 2019, dated 2026):
*1 amine or outer side, *2 acyl side, *3 side chain or, on linkers, in order; H or OH if unused. Where a SMILES comes first, the peptide text is derived from it. Side-chain parts run from the residue outwards. [ ]: non-standard residue; d: D form. The star is where a group is joined. C20 diacid = O=C(O)CCCCCCCCCCCCCCCCCCC(=O)*; γGlu = O=C(O)[C@H](CCC(=O)[*:2])N[*:1]; 4Pal = N[C@@H](Cc1ccncc1)C(=O)O; αMeL = CC(C)C[C@](C)(N)C(=O)O; AEEA = NCCOCCOCC(=O)O; Aib = CC(C)(N)C(=O)O

Key:
human GcgR = target: T1, human GcgR (Homo sapiens, UniProt P47871); assay: [125I]-Glucagon binding, SPA with WGA beads, 0.1% bacitracin; conditions: geometric mean, read-out: hGcgR Ki
T1 construct: expressed in transfected cells; crude membranes
Outline: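 SPA competition binding with WGA beads on crude membranes from HEK293 cells stably expressing hGcgR. Buffer: 25 mM HEPES pH 7.4, 2.5 mM CaCl2, 1 mM MgCl2, 0.1% bacitracin, 0.003% Tween-20; 10-point 3-fold dilutions, NSB with 1 μM Gcg.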

human GLP-1R = target: T2, human GLP-1R (Homo sapiens, UniProt P43220); assay: [125I]-GLP-1 binding, SPA with WGA beads, 0.1% bacitracin; conditions: geometric mean, read-out: hGLP1R Ki
T2 construct: expressed in transfected cells; crude membranes
Outline: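 Binding buffer was 25 mM HEPES pH 7.4 with 2.5 mM CaCl2, 1 mM MgCl2, 0.1% (w/v) bacitracin, 0.003% Tween-20 and EDTA-free protease inhibitors. Four-parameter regression gave IC50, converted to Ki (geometric mean, SEM, n independent days).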

[1] = target: T3, human GLP-1 receptor (GLP-1R) (Homo sapiens, UniProt P43220); assay: cAMP functional assay (HTRF) in HEK293 cells in presence of 0.1% casein; assay type: cell-based; conditions: HEK293 cells expressing human GLP-1R, geometric mean, read-out: hGLP1R cAMP Rel EC50 nM (SEM, n)
T3 construct: expressed in transfected cells; host or cells: HEK293
T3 sequence (P43220 24-463): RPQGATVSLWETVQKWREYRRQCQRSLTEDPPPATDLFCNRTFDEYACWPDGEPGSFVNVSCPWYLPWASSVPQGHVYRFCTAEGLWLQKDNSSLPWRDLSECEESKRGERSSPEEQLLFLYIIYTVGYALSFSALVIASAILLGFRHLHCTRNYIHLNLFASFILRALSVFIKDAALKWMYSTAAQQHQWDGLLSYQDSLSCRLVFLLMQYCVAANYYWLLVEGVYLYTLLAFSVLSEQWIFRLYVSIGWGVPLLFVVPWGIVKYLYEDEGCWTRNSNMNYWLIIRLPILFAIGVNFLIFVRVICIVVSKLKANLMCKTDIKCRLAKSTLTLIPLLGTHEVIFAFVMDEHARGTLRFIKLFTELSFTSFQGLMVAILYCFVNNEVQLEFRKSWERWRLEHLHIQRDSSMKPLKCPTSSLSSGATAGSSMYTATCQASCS

T1 sequence (P47871 26-477): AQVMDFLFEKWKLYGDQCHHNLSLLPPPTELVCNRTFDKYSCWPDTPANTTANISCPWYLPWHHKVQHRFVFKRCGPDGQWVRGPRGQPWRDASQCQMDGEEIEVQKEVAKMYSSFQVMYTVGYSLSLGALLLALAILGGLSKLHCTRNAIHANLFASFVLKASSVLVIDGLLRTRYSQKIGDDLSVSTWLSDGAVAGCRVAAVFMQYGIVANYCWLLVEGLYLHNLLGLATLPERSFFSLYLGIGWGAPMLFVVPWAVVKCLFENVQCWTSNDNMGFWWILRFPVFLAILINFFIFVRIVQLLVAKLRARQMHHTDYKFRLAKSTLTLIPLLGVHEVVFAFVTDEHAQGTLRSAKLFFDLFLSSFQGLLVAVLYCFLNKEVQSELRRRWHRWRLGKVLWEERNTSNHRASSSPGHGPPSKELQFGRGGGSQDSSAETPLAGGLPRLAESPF
T2 sequence (P43220 24-463): as the sequence (P43220 24-463) above

SMILES	Ki (human GcgR) [nM]	Ki (human GLP-1R) [nM]	EC50 [1] [nM]
CC[C@H](C)[C@H](NC(=O)[C@H](Cc1ccccc1)NC(=O)[C@@H](NC(=O)CNC(=O)[C@H](CCC(=O)O)NC(=O)C(C)(C)NC(=O)[C@@H](N)Cc1ccc(O)cc1)[C@@H](C)O)C(=O)N[C@@H](CO)C(=O)N[C@@H](CC(=O)O)C(=O)N[C@@H](Cc1ccc(O)cc1)C(=O)N[C@@H](CO)C(=O)N[C@H](C(=O)N[C@@](C)(CC(C)C)C(=O)N[C@@H](CC(C)C)C(=O)N[C@@H](CC(=O)O)C(=O)N[C@@H](CCCCN)C(=O)N[C@@H](CCCCNC(=O)COCCOCCNC(=O)COCCOCCNC(=O)CC[C@H](NC(=O)CCCCCCCCCCCCCCCCCCC(=O)O)C(=O)O)C(=O)N[C@@H](Cc1c[nH]cn1)C(=O)N[C@@H](CCC(N)=O)C(=O)NC(C)(C)C(=O)N[C@@H](CCC(=O)O)C(=O)N[C@@H](Cc1ccccc1)C(=O)N[C@H](C(=O)N[C@@H](CCC(=O)O)C(=O)N[C@@H](Cc1ccc(O)cc1)C(=O)N[C@@H](CC(C)C)C(=O)N[C@@H](CC(C)C)C(=O)N[C@@H](CCC(=O)O)C(=O)N[C@@H](C)C(=O)NCC(=O)N1CCC[C@H]1C(=O)N[C@@H](CO)C(=O)N[C@@H](CO)C(=O)NCC(=O)N[C@@H](C)C(=O)N1CCC[C@H]1C(=O)N1CCC[C@H]1C(=O)N1CCC[C@H]1C(=O)N[C@@H](CO)C(N)=O)C(C)C)[C@@H](C)CC [Example 65] (H-Y[Aib]EGTFISDYSI[αMeL]LDKK([AEEA-AEEA-γGlu-C20 diacid])HQ[Aib]EFVEYLLEAGPSSGAPPPS-NH2)	279	305	> 5000
CC[C@H](C)[C@H](NC(=O)[C@H](Cc1ccccc1)NC(=O)[C@@H](NC(=O)CNC(=O)[C@H](CCC(=O)O)NC(=O)C(C)(C)NC(=O)[C@@H](N)Cc1ccc(O)cc1)[C@@H](C)O)C(=O)N[C@@H](CO)C(=O)N[C@@H](CC(=O)O)C(=O)N[C@@H](Cc1ccc(O)cc1)C(=O)N[C@@H](CO)C(=O)N[C@H](C(=O)N[C@@](C)(CC(C)C)C(=O)N[C@@H](CC(C)C)C(=O)N[C@@H](CC(=O)O)C(=O)N[C@@H](CCCCN)C(=O)N[C@@H](CCCCNC(=O)COCCOCCNC(=O)COCCOCCNC(=O)CC[C@H](NC(=O)CCCCCCCCCCCCCCCCCCC(=O)O)C(=O)O)C(=O)N[C@@H](Cc1c[nH]cn1)C(=O)N[C@@H](CCC(N)=O)C(=O)NC(C)(C)C(=O)N[C@@H](CC(=O)O)C(=O)N[C@@H](Cc1ccccc1)C(=O)N[C@H](C(=O)N[C@@H](CCC(=O)O)C(=O)N[C@@H](Cc1ccc(O)cc1)C(=O)N[C@@H](CC(C)C)C(=O)N[C@@H](CC(C)C)C(=O)N[C@@H](CCC(=O)O)C(=O)N[C@H](C(=O)NCC(=O)N1CCC[C@H]1C(=O)N[C@@H](CO)C(=O)N[C@@H](CO)C(=O)NCC(=O)N[C@@H](C)C(=O)N1CCC[C@H]1C(=O)N1CCC[C@H]1C(=O)N1CCC[C@H]1C(=O)N[C@@H](CO)C(N)=O)[C@@H](C)O)C(C)C)[C@@H](C)CC [Example 66] (H-Y[Aib]EGTFISDYSI[αMeL]LDKK([AEEA-AEEA-γGlu-C20 diacid])HQ[Aib]DFVEYLLETGPSSGAPPPS-NH2)	279	326	> 5000
CC[C@H](C)[C@H](NC(=O)[C@H](Cc1ccccc1)NC(=O)[C@@H](NC(=O)CNC(=O)[C@H](CCC(=O)O)NC(=O)C(C)(C)NC(=O)[C@@H](N)Cc1ccc(O)cc1)[C@@H](C)O)C(=O)N[C@@H](CO)C(=O)N[C@@H](CC(=O)O)C(=O)N[C@@H](Cc1ccc(O)cc1)C(=O)N[C@@H](CO)C(=O)N[C@H](C(=O)N[C@@](C)(CC(C)C)C(=O)N[C@@H](CC(C)C)C(=O)N[C@@H](CC(=O)O)C(=O)N[C@@H](CCCCN)C(=O)N[C@@H](CCCCNC(=O)COCCOCCNC(=O)COCCOCCNC(=O)CC[C@H](NC(=O)CCCCCCCCCCCCCCCCCCC(=O)O)C(=O)O)C(=O)N[C@@H](Cc1c[nH]cn1)C(=O)N[C@@H](CCC(N)=O)C(=O)NC(C)(C)C(=O)N[C@@H](CC(=O)O)C(=O)N[C@@H](Cc1ccccc1)C(=O)N[C@H](C(=O)N[C@@H](CCC(=O)O)C(=O)N[C@@H](Cc1ccc(O)cc1)C(=O)N[C@@H](CC(C)C)C(=O)N[C@@H](CC(C)C)C(=O)N[C@@H](CCC(=O)O)C(=O)N[C@@H](C)C(=O)NCC(=O)N1CCC[C@H]1C(=O)N[C@@H](CO)C(=O)N[C@@H](CO)C(=O)NCC(=O)N[C@@H](C)C(=O)N1CCC[C@H]1C(=O)N1CCC[C@H]1C(=O)N1CCC[C@H]1C(=O)N[C@@H](CO)C(N)=O)C(C)C)[C@@H](C)CC [Example 68] (H-Y[Aib]EGTFISDYSI[αMeL]LDKK([AEEA-AEEA-γGlu-C20 diacid])HQ[Aib]DFVEYLLEAGPSSGAPPPS-NH2)	290	421	> 5000
CC[C@H](C)[C@H](NC(=O)[C@H](Cc1ccccc1)NC(=O)[C@@H](NC(=O)CNC(=O)[C@H](CCC(=O)O)NC(=O)C(C)(C)NC(=O)[C@@H](N)Cc1ccc(O)cc1)[C@@H](C)O)C(=O)N[C@@H](CO)C(=O)N[C@@H](CC(=O)O)C(=O)N[C@@H](Cc1ccc(O)cc1)C(=O)N[C@@H](CO)C(=O)N[C@H](C(=O)N[C@@](C)(CC(C)C)C(=O)N[C@@H](CC(C)C)C(=O)N[C@@H](CC(=O)O)C(=O)N[C@@H](CCCCN)C(=O)N[C@@H](CCCCNC(=O)COCCOCCNC(=O)COCCOCCNC(=O)CC[C@H](NC(=O)CCCCCCCCCCCCCCCCCCC(=O)O)C(=O)O)C(=O)N[C@@H](Cc1c[nH]cn1)C(=O)N[C@@H](CCC(N)=O)C(=O)NC(C)(C)C(=O)N[C@@H](CC(=O)O)C(=O)N[C@@H](Cc1ccccc1)C(=O)N[C@H](C(=O)N[C@@H](CCC(=O)O)C(=O)N[C@@H](Cc1ccc(O)cc1)C(=O)N[C@@H](CC(C)C)C(=O)N[C@@H](CC(C)C)C(=O)N[C@@H](CCC(=O)O)C(=O)NCC(=O)NCC(=O)N1CCC[C@H]1C(=O)N[C@@H](CO)C(=O)N[C@@H](CO)C(=O)NCC(=O)N[C@@H](C)C(=O)N1CCC[C@H]1C(=O)N1CCC[C@H]1C(=O)N1CCC[C@H]1C(=O)N[C@@H](CO)C(N)=O)C(C)C)[C@@H](C)CC [Example 69] (H-Y[Aib]EGTFISDYSI[αMeL]LDKK([AEEA-AEEA-γGlu-C20 diacid])HQ[Aib]DFVEYLLEGGPSSGAPPPS-NH2)	114	144	> 5000
CC[C@H](C)[C@H](NC(=O)[C@H](Cc1ccccc1)NC(=O)[C@@H](NC(=O)CNC(=O)[C@H](CCC(=O)O)NC(=O)C(C)(C)NC(=O)[C@@H](N)Cc1ccc(O)cc1)[C@@H](C)O)C(=O)N[C@@H](CO)C(=O)N[C@@H](CC(=O)O)C(=O)N[C@@H](Cc1ccc(O)cc1)C(=O)N[C@@H](CO)C(=O)N[C@H](C(=O)N[C@@](C)(CC(C)C)C(=O)N[C@@H](CC(C)C)C(=O)N[C@@H](CC(=O)O)C(=O)N[C@@H](CCCCN)C(=O)N[C@@H](CCCCNC(=O)COCCOCCNC(=O)COCCOCCNC(=O)CC[C@H](NC(=O)CCCCCCCCCCCCCCCCCCC(=O)O)C(=O)O)C(=O)N[C@@H](Cc1c[nH]cn1)C(=O)N[C@@H](CCC(N)=O)C(=O)NC(C)(C)C(=O)N[C@@H](CC(=O)O)C(=O)N[C@@H](Cc1ccccc1)C(=O)N[C@H](C(=O)N[C@@H](CCC(=O)O)C(=O)N[C@@H](Cc1ccncc1)C(=O)N[C@@H](CC(C)C)C(=O)N[C@@H](CC(C)C)C(=O)N[C@@H](C)C(=O)N[C@H](C(=O)NCC(=O)N1CCC[C@H]1C(=O)N[C@@H](CO)C(=O)N[C@@H](CO)C(=O)NCC(=O)N[C@@H](C)C(=O)N1CCC[C@H]1C(=O)N1CCC[C@H]1C(=O)N1CCC[C@H]1C(=O)N[C@@H](CO)C(N)=O)[C@@H](C)O)C(C)C)[C@@H](C)CC [Example 70] (H-Y[Aib]EGTFISDYSI[αMeL]LDKK([AEEA-AEEA-γGlu-C20 diacid])HQ[Aib]DFVE[4Pal]LLATGPSSGAPPPS-NH2)	857	570	> 5000
